Experimental data from patent publication EP3820845B1, “NOVEL, NEW GENERATION INHIBITOR COMPOUNDS SPECIFIC TO GST P1 ENZYME” (HACETTEPE ÜNIVERSITESI, priority 2018, dated 2020).
Read-outs that look alike come from different tables or passages of the source.

Assays:
human-GST P1 (hGST P1) = human-GST P1 (hGST P1) (Homo sapiens, UniProt P09211); test: Spectrophotometric GST P1 enzyme inhibition test (GSH/CDNB conjugation), IC50 determination; type: biochemical; conditions: spectrophotometric enzyme activity, ctapm1 concentrations between 0-100 µM; GraphPrism calculation; Figure 1
Protocol: Pure human-GST P1 (hGST P1) enzyme has been used as target protein in enzyme inhibition tests. "Ethacrynic acid" has been used as the model inhibitor compound. Ctapm1 (compound 1) compound which is a tetrahydrocarbazole derivative has been used as the basic precursor inhibitor for compounds that are designed, synthesized and are planned to be synthesized with advanced modifications.
The enzyme activity was determined over the activity of GST P1 enzyme which conjugated GSH and 1-chloro-2,4-dinitrobenzene (CDNB). The test medium was prepared to include 100 mM sodium phosphate buffer (pH 6.5) comprising 1 mM EDTA, 1 mM GSH, 1 mM CDNB and 5% ethanol and the temperature of the medium was determined as 30°C. The formation of a conjugate (GS-DNB) was monitored for 1 minute over the absorbance increase at 340 nm wavelength. The specific activity was calculated using 0.0096 µM^-1 cm ^-1 absorption coefficient. […] [formula] ΔA: Absorbance change (A340/minute.ml) Vr: Reaction volume (ml) d: Dilution factor ε: Molar absorption coefficient (9,6 mM^-1, cm^-1) ℓ: Light path (0,524 cm for 1 cm microplate measurements for Standard spectrophotometry vessel, Ve: Volume added to the stock enzyme reaction medium (ml) […]
In order to determine IC50 values of compounds both the standard spectrophotometric method and the microplate kinetic reading method was used together. […]

GST P1 = GST P1 (Homo sapiens, UniProt P09211); test: Enzyme kinetic analysis with GST P1 (GSH- and CDNB-dependent Michaelis-Menten / Lineweaver-Burk), Ki inhibition constants; type: biochemical; conditions: Figure 2
Protocol: Figure 1. IC50 dose(Log)-inhibition graph of the spectrophotometric enzyme activity of GST P1 at concentrations of the ctapm1 compound between 0-100 µM. Figure 2. kinetic analysis results of ctapm1 compound with GST P1. A and C are the GSH and CDNB dependent Michaelis-Menten graphic of the ctapm1 compound and B and D are the GSH and CDNB dependent Lineweaver-Burk graphs of the ctapm1 compound. Figure 3. The schematic view of the THC fragment, its load distribution and elemental features. 2-dimension schematic view (a) of "2,3,4,9-tetrahydro-1H-carbazole"in (shortly tetra hydro or THC) and the load distribution (b) of the THC fragment. […]
The enzyme activity was determined over the activity of GST P1 enzyme which conjugated GSH and 1-chloro-2,4-dinitrobenzene (CDNB). The test medium was prepared to include 100 mM sodium phosphate buffer (pH 6.5) comprising 1 mM EDTA, 1 mM GSH, 1 mM CDNB and 5% ethanol and the temperature of the medium was determined as 30°C. The formation of a conjugate (GS-DNB) was monitored for 1 minute over the absorbance increase at 340 nm wavelength. The specific activity was calculated using 0.0096 µM^-1 cm ^-1 absorption coefficient. […]

GST P1, sequence (P09211 2-210 limits assumed): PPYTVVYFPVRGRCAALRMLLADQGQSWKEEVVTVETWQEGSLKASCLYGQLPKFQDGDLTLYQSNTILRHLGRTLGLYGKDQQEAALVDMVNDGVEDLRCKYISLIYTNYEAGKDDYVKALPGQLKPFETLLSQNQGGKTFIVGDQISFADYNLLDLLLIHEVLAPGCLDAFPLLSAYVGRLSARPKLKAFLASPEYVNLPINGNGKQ
human-GST P1 (hGST P1), sequence (P09211 2-210 limits assumed): as above

Structure (SMILES): S=c1[nH]nc(C2CCc3[nH]c4ccccc4c3C2)[nH]1 (stereo not drawn) [Compound 1, 3-(2,3,4,9-tetrahydro-1H-carbazole-3-yl)-1H-1,2,4-triazole-5(4H)-thione]
- IC50 (human-GST P1 (hGST P1)): 1070 nM
- Ki (GST P1; competitive type, read-out: Ki inhibition constant against CDNB): 1700 nM
- Ki (GST P1; non-competitive type, read-out: Ki inhibition constant against GSH): 1740 nM
